Results from patent US4087450A, “(Polychlorophenoxy) methyl esters of thiocyanic acid” (priority 1977, dated 1978).
In brackets after ≈: the same amount, converted by molar mass.

Experiments:
[1] = volatility determination, retention on glass fiber paper; type: physicochemical; conditions: 50° C. oven for 7 days, average of duplicate determinations
Protocol: (§1) To determine volatility and water solubility of the compounds, the following procedure was used: A 0.1 g. portion of each compound was dissolved in 2.0 ml. acetone. One-half of this solution was placed on a dry, pre-weighed, 7 cm. diameter sheet of glass fiber paper (Reeve Angel #934AH). The fiber paper was allowed to air dry for 24 hours and was re-weighed to determine the amount (0.05 g.) of the compound present. The other half of the solution was used to impregnate similarly another sheet of glass fiber paper. For the volatility determination, one of the papers was placed in a 50° C. oven for 7 days, removed, air cooled for 24 hours, and weighed. The percent retention given in Table II was calculated by the following formula: [formula]

[2] = test system: Trichophyton mentagrophytes; experiment: conventional agar dilution test, 100% growth inhibition; type: cell-based; conditions: read-out: Concentration for 100% Growth Inhibition
Source text: (§2) In representative operations, the compounds of the present invention when tested for their activity as antimicrobials using conventional agar dilution tests give complete growth inhibition against C. albicans, T. mentagrophytes, C. pelliculosa, R. nigricans, C. ips, C. fragans and Trichoderma sp. 42. The following Table provides test data summaries in comparison with the activity of art compounds.

[3] = test system: Trichoderma species 42; experiment: as above; type: cell-based; conditions: Trichoderma species 42, agar dilution; read-out: Concentration for 100% Growth Inhibition
Source text: as §2

[4] = test system: Rhizopus nigricans; experiment: as above; type: cell-based; conditions: Rhizopus stolonifer, read-out: Concentration for 100% Growth Inhibition
Source text: as §2

[5] = test system: Pullularia pullulans; experiment: as above; type: cell-based; conditions: read-out: Concentration for 100% Growth Inhibition
Source text: as §2

[6] = test system: Candida albicans; experiment: as above; type: cell-based; conditions: read-out: Concentration for 100% Growth Inhibition
Source text: as §2

[7] = test system: Ceratocystis ips; experiment: as above; type: cell-based; conditions: read-out: Concentration for 100% Growth Inhibition
Source text: as §2

[8] = test system: Candida pelliculosa; experiment: as above; type: cell-based; conditions: Hansenula anomala, read-out: Concentration for 100% Growth Inhibition
Source text: as §2

[9] = test system: Tunicates; experiment: marine antifoulant activity, fouling of test panels; conditions: Compound I 0.14 g. in panel, TBTO 0.13 g. in panel, seawater
Protocol: (§3) The compounds of this invention also repel or are toxic towards lower forms of marine life such as barnacles, and thereby function effectively as marine antifoulants. In evaluating marine antifoulant activity, a comparison of compound (I) vs. a standard antifouling toxicant, bis(tri-n-butyltin) oxide (TBTO), was carried out by treating pre-weighed 21/2 inch by 21/2 inch by 1/4 inch porous silica test panels with a solution of the individual compound in methyl isobutyl ketone, allowing the solvent to air dry to constant weight, and then immersing the panels in seawater at a subtropical location which has dense populations of fouling organisms. Under these conditions, an untreated panel became completely fouled after two months' exposure.

[10] = test system: Tube Worms; experiment: as above; conditions: Compound I 0.14 g. in panel, TBTO 0.13 g. in panel, seawater
Protocol: as §3

[11] = test system: Barnacles; experiment: as above; conditions: Compound I 0.14 g. in panel, TBTO 0.13 g. in panel, seawater
Protocol: as §3

[12] = test system: Hydroids; experiment: as above; conditions: Compound I 0.14 g. in panel, TBTO 0.13 g. in panel, seawater
Protocol: as §3

[13] = test system: Algae Spores; experiment: as above; conditions: Compound I 0.14 g. in panel, TBTO 0.13 g. in panel, seawater
Protocol: as §3

[14] = test system: Algae; experiment: as above; conditions: Compound I 0.14 g. in panel, TBTO 0.13 g. in panel, seawater
Protocol: as §3

[15] = test system: Microfouling; experiment: as above; conditions: Compound I 0.14 g. in panel, TBTO 0.13 g. in panel, seawater
Protocol: as §3

[16] = test system: Encrusting Bryozoans; experiment: as above; conditions: Compound I 0.14 g. in panel, TBTO 0.13 g. in panel, seawater
Protocol: as §3

[17] = test system: Oysters; experiment: as above; conditions: Compound I 0.14 g. in panel, TBTO 0.13 g. in panel, seawater
Protocol: as §3

[18] = water-leachability determination, retention on glass fiber paper; type: physicochemical; conditions: leached 8 hours, 20° C. water at 10 ml./sec., average of duplicate determinations
Protocol: as §1
For the water-leachability determination, the second impregnated paper was leached for 8 hours with 20° C. water running at 10 ml./sec. The fiber paper was allowed to air dry for 24 hours, then re-weighed. The percent retention was also calculated by the above formula. The figures recorded in following Table II represent the average of duplicate determinations.

[19] = test system: mold growth; experiment: outdoor exposure test, preservation of acrylic latex paint (modified ASTM D-1006); design: key to mold growth rating, 4 Mo. / mold growth rating, 5 Mo. / mold growth rating, 8 Mo.: 1: No mold growth; 2: Trace, <5% growth; 3: Trace, 5-10% growth; 4: 10-25% growth; 25-50% growth; 6: 50-70% growth; 70-90% growth; 8: 90-95% growth; 9: 100% growth; 100% growth, severe; conditions: for mold growth rating, 4 Mo.: 4 months outdoor; for mold growth rating, 5 Mo.: 5 months outdoor; for mold growth rating, 8 Mo.: 8 months outdoor; for mold growth rating, 10 Mo.: 10 months outdoor
Source text: (§4) Using a modification of ASTM D-1006, clear sapwood ponderosa pine boards 1/2 inch × 6 inches × 36 inches were primed with an unpreserved alkyd coating. A single coat of paint (alkyd or acrylic latex) incorporating compound (I) was brush applied. The boards were then exposed to the elements at Lake Jackson, Texas, and periodically readings were taken using the following rating scale: […]

[20] = test system: mold growth; experiment: outdoor exposure test, preservation of alkyd paint (modified ASTM D-1006); design: key to mold growth rating, 8 Mo. / mold growth rating, 4 Mo. / mold growth rating, 5 Mo.: 1: No mold growth; 2: Trace, <5% growth; 3: Trace, 5-10% growth; 4: 10-25% growth; 25-50% growth; 6: 50-70% growth; 70-90% growth; 8: 90-95% growth; 9: 100% growth; 100% growth, severe; conditions: for mold growth rating, 4 Mo.: 4 months outdoor; for mold growth rating, 5 Mo.: 5 months outdoor; for mold growth rating, 8 Mo.: 8 months outdoor; for mold growth rating, 10 Mo.: 10 months outdoor
Source text: as §4

[21] = test system: important fungi; experiment: fungicidal activity against important fungi; conditions: in words

## N#CSCOc1cc(Cl)c(Cl)cc1Cl [Compound I, Thiocyanic Acid, (2,4,5-Trichlorophenoxy)Methyl Ester]
[1]
  Percent Retention, Volatility: 74%
[2]
  MIC: 0.1 µg/mL (≈ 0.372 µM)
[3]
  MIC: 10 µg/mL (≈ 37.2 µM)
[4]
  MIC: 10 µg/mL (≈ 37.2 µM)
[5]
  MIC: 10 µg/mL (≈ 37.2 µM)
[6]
  MIC: 10 µg/mL (≈ 37.2 µM)
[7]
  MIC: 1 µg/mL (≈ 3.72 µM)
[8]
  MIC: 10 µg/mL (≈ 37.2 µM)
[9]
  Percent Fouling of Test Panels: 0%
[10]
  Percent Fouling of Test Panels: 0%
[11]
  Percent Fouling of Test Panels: 0%
[12]
  Percent Fouling of Test Panels: 0%
[13]
  Percent Fouling of Test Panels: 30%
[14]
  Percent Fouling of Test Panels: 0%
[15]
  Percent Fouling of Test Panels: 0%
[16]
  Percent Fouling of Test Panels: 0%
[17]
  Percent Fouling of Test Panels: 0%
[18]
  Percent Retention, Water Extraction: 92%
[19]; 0.5 wt. % (I)
  mold growth rating, 4 Mo.: 1
  mold growth rating, 5 Mo.: 1
  mold growth rating, 8 Mo.: 1
  mold growth rating, 10 Mo.: 2 (Trace, <5% growth)
[19]; 1.0 wt. % (I)
  mold growth rating, 4 Mo.: 1
  mold growth rating, 5 Mo.: 1
  mold growth rating, 8 Mo.: 1
  mold growth rating, 10 Mo.: 2 (Trace, <5% growth)
[20]; 0.4 wt. % (I)
  mold growth rating, 4 Mo.: 9 (100% growth)
  mold growth rating, 5 Mo.: 9 (100% growth)
  mold growth rating, 8 Mo.: 1
  mold growth rating, 10 Mo.: 2 (Trace, <5% growth)
[20]; 0.6 wt. % (I)
  mold growth rating, 4 Mo.: 8 (90-95% growth)
  mold growth rating, 5 Mo.: 9 (100% growth)
  mold growth rating, 8 Mo.: 1
  mold growth rating, 10 Mo.: 2 (Trace, <5% growth)
[20]; 0.8 wt. % (I)
  mold growth rating, 4 Mo.: 4 (10-25% growth)
  mold growth rating, 5 Mo.: 3 (Trace, 5-10% growth)
  mold growth rating, 8 Mo.: 1
  mold growth rating, 10 Mo.: 2 (Trace, <5% growth)
[20]; 1.0 wt. % (I)
  mold growth rating, 4 Mo.: 1
  mold growth rating, 5 Mo.: 1
  mold growth rating, 8 Mo.: 1
  mold growth rating, 10 Mo.: 2 (Trace, <5% growth)

## N#CSCOc1ccc(Cl)cc1Cl [Compound V]
[1]
  Percent Retention, Volatility: 6%
[2]
  MIC: 1 µg/mL (≈ 4.27 µM)
[3]
  MIC: 10 µg/mL (≈ 42.7 µM)
[4]
  MIC: 10 µg/mL (≈ 42.7 µM)
[5]
  MIC: 10 µg/mL (≈ 42.7 µM)
[6]
  MIC: 100 µg/mL (≈ 427 µM)
[7]
  MIC: 10 µg/mL (≈ 42.7 µM)
[8]
  MIC: 10 µg/mL (≈ 42.7 µM)
[18]
  Percent Retention, Water Extraction: 52%

## N#CSCOc1c(Cl)cc(Cl)c(Cl)c1Cl [II, Thiocyanic Acid, (2,3,4,6-Tetrachlorophenoxy)Methyl Ester]
[1]
  Percent Retention, Volatility: 49%
[2]
  MIC: 1 µg/mL (≈ 3.3 µM)
[3]
  MIC: 1 µg/mL (≈ 3.3 µM)
[4]
  MIC: 100 µg/mL (≈ 330 µM)
[5]
  MIC: 1 µg/mL (≈ 3.3 µM)
[6]
  MIC: 10 µg/mL (≈ 33 µM)
[7]
  MIC: 1 µg/mL (≈ 3.3 µM)
[8]
  MIC: 10 µg/mL (≈ 33 µM)
[18]
  Percent Retention, Water Extraction: 96%

## N#CSCOc1ccc(Cl)cc1 [III]
[1]
  Percent Retention, Volatility: 2%
[2]
  MIC: 100 µg/mL (≈ 501 µM)
[3]
  MIC: 100 µg/mL (≈ 501 µM)
[4]
  MIC: 500 µg/mL (≈ 2500 µM)
[5]
  MIC: 500 µg/mL (≈ 2500 µM)
[6]
  MIC: 500 µg/mL (≈ 2500 µM)
[7]
  MIC: 500 µg/mL (≈ 2500 µM)
[8]
  MIC: 500 µg/mL (≈ 2500 µM)
[18]
  Percent Retention, Water Extraction: 80%

## Cc1cc(OCSC#N)ccc1Cl [IV]
[1]
  Percent Retention, Volatility: 12%
[2]
  MIC: 100 µg/mL (≈ 468 µM)
[3]
  MIC: 100 µg/mL (≈ 468 µM)
[4]
  MIC: 500 µg/mL (≈ 2340 µM)
[5]
  MIC: 500 µg/mL (≈ 2340 µM)
[6]
  MIC: 500 µg/mL (≈ 2340 µM)
[7]
  MIC: 500 µg/mL (≈ 2340 µM)
[8]
  MIC: 500 µg/mL (≈ 2340 µM)
[18]
  Percent Retention, Water Extraction: 71%

## CCC[CH2][Sn]([CH2]CCC)([CH2]CCC)[O][Sn]([CH2]CCC)([CH2]CCC)[CH2]CCC [TBTO, bis(tri-n-butyltin) oxide, reference compound]
[9]
  Percent Fouling of Test Panels: 0%
[10]
  Percent Fouling of Test Panels: 0%
[11]
  Percent Fouling of Test Panels: 0%
[12]
  Percent Fouling of Test Panels: 0%
[13]
  Percent Fouling of Test Panels: 20%
[14]
  Percent Fouling of Test Panels: 0%
[15]
  Percent Fouling of Test Panels: 0%
[16]
  Percent Fouling of Test Panels: 0%
[17]
  Percent Fouling of Test Panels: 0%

## N#CSCOc1c(Cl)c(Cl)c(Cl)c(Cl)c1Cl [VI]
[1]
  Percent Retention, Volatility: 97%
[2]
  MIC: 100 µg/mL (≈ 296 µM)
[3]
  MIC: > 500 µg/mL
[4]
  MIC: > 500 µg/mL
[5]
  MIC: > 500 µg/mL
[6]
  MIC: > 500 µg/mL
[7]
  MIC: > 500 µg/mL
[8]
  MIC: > 500 µg/mL
[18]
  Percent Retention, Water Extraction: 98%

## N#CSCOc1c(Cl)c(Cl)c(Cl)c(Cl)c1Cl [pentachloro-(thiocyanatomethoxy)- benzene]
[21]
  fungicidal activity against important fungi, relative to the compounds of this invention: a small fraction of that of the compounds herein claimed
